Results from US7101878B1 (Agouron Pharmaceuticals, Inc., priority 1998, dated 2006).

target: T1, mouse GnRH receptor (Mus musculus, UniProt Q01776); test: Radioligand binding, 125I-GnRH-A, 293 cells expressing mouse GnRH receptors; details: 10 uM; read-out: % Inhib. @ 10 uM mGnRH
T1 construct: expressed in transfected cells; host or cells: 293 cells
T1 sequence (Q01776 1-327): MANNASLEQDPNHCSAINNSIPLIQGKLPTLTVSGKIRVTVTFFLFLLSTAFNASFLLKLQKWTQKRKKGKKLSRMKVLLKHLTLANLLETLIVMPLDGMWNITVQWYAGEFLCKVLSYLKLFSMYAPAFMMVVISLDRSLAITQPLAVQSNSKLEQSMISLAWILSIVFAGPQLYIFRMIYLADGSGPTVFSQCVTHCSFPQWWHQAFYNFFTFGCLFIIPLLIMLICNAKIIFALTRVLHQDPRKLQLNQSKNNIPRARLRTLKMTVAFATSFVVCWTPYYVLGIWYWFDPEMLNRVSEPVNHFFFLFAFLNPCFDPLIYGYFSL
Outline: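 Bound label captured on 0.1% polyethyleneimine-treated GF/C filters, washed three times with PBS, counted. IC50 derived; identical set-up for every species.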

inhibition at 10 µM [%] | SMILES
102 | Cc1cc2c(cc1Cc1ccc(C(=O)N3CCCC3C)o1)C(C)(C)CCC2(C)C (stereo not shown) [drawing 1545]
79 | CCN(Cc1ccc(C)cc1)C(=O)c1ccc(Cc2cc3c(cc2C)C(C)(C)CCC3(C)C)o1 [drawing 1543]
101 | Cc1cc2c(cc1Cc1ccc(C(=O)NC3CCN(Cc4ccccc4)C3)o1)C(C)(C)CCC2(C)C (stereo not shown) [drawing 1243]
99 | Cc1cc2c(cc1Cc1ccc(C(=O)N(CCCCO)Cc3ccccc3)o1)C(C)(C)CCC2(C)C
99 | CCC(O)CNC(=O)c1ccc(Cc2cc3c(cc2C)C(C)(C)CCC3(C)C)o1 (stereo not shown) [drawing 1537]
90 | CCCCNC(=O)c1ccc(Cc2cc3c(cc2C)C(C)(C)CCC3(C)C)o1
37 | Cc1cc2c(cc1Cc1ccc(C(=O)NC(C)(C)CNC(=O)C(F)(F)F)o1)C(C)(C)CCC2(C)C
94 | CCN(CC)CCNC(=O)c1ccc(Cc2cc3c(cc2C)C(C)(C)CCC3(C)C)o1 [drawing 1506]
90 | Cc1cc2c(cc1Cc1ccc(C(=O)NC3CCS(=O)(=O)C3)o1)C(C)(C)CCC2(C)C (stereo not shown) [drawing 1508]
104 | Cc1cc2c(cc1Cc1ccc(C(=O)N(CCN3CCCCC3)Cc3ccccc3)o1)C(C)(C)CCC2(C)C [drawing 1460]
64 | Cc1cc2c(cc1Cc1ccc(C(=O)NC3CCC(C)CC3)o1)C(C)(C)CCC2(C)C (stereo not shown)
76 | Cc1cc2c(cc1Cc1ccc(C(=O)NC(CO)CC3CCCCC3)o1)C(C)(C)CCC2(C)C (stereo not shown) [drawing 1465]
96 | CCN1CCCC1CNC(=O)c1ccc(Cc2cc3c(cc2C)C(C)(C)CCC3(C)C)o1 (stereo not shown)
74 | Cc1cc2c(cc1Cc1ccc(C(=O)N3CCC[C@H]3C(N)=O)o1)C(C)(C)CCC2(C)C
97 | Cc1cc2c(cc1Cc1ccc(C(=O)NCc3ccc(F)cc3)o1)C(C)(C)CCC2(C)C [drawing 1482]
14 | Cc1cc2c(cc1Cc1ccc(C(=O)N(C)CCCC34c5ccccc5[C@@H]5CCC53c3ccccc34)o1)C(C)(C)CCC2(C)C (stereo partly shown)

inhibition at 10 µM [%] | SMILES
23 | CNC(=O)c1ccc(Cc2cc3c(cc2C)C(C)(C)CCC3(C)C)o1 [drawing 1539]
98 | CCC(COC)NC(=O)c1ccc(Cc2cc3c(cc2C)C(C)(C)CCC3(C)C)o1 (stereo not shown)
9 | Cc1cc2c(cc1Cc1ccc(C(=O)N3CCCC(C(=O)NC(c4ccccc4)c4ccccc4)C3)o1)C(C)(C)CCC2(C)C (stereo not shown)
91 | COc1ccccc1CN(C(=O)c1ccc(Cc2cc3c(cc2C)C(C)(C)CCC3(C)C)o1)C1CCN(Cc2ccccc2)C1 (stereo not shown) [drawing 1558]
83 | Cc1cc2c(cc1Cc1ccc(C(=O)N3CCN(Cc4ccccc4)CC3)o1)C(C)(C)CCC2(C)C
27 | Cc1cc2c(cc1Cc1ccc(C(=O)N(Cc3c[nH]c4ccccc34)C3CCCCC3)o1)C(C)(C)CCC2(C)C
69 | Cc1cc2c(cc1Cc1ccc(C(=O)N(C)CC(O)CO)o1)C(C)(C)CCC2(C)C (stereo not shown)
99 | CSCCCNC(=O)c1ccc(Cc2cc3c(cc2C)C(C)(C)CCC3(C)C)o1 [drawing 1586]
103 | Cc1cc2c(cc1Cc1ccc(C(=O)NCCCCCCO)o1)C(C)(C)CCC2(C)C [drawing 1550]
36 | Cc1cc2c(cc1Cc1ccc(C(=O)N3CCN(C(=O)C(c4ccccc4)c4ccccc4)CC3)o1)C(C)(C)CCC2(C)C
67 | COc1cccc(N2CCN(C(=O)c3ccc(Cc4cc5c(cc4C)C(C)(C)CCC5(C)C)o3)CC2)c1 [drawing 1497]
85 | Cc1cc2c(cc1Cc1ccc(C(=O)N3CC=C(n4c(=O)[nH]c5ccccc54)CC3)o1)C(C)(C)CCC2(C)C
103 | Cc1cc2c(cc1Cc1ccc(C(=O)N(CCCN3CCN(C)CC3)Cc3ccc(F)cc3)o1)C(C)(C)CCC2(C)C [drawing 1490]
69 | Cc1cc2c(cc1Cc1ccc(C(=O)N3CC=CCC3)o1)C(C)(C)CCC2(C)C [drawing 1430]
44 | Cc1cc2c(cc1Cc1ccc(C(=O)N[C@H](C)c3ccc([N+](=O)[O-])cc3)o1)C(C)(C)CCC2(C)C

same assay, conditions: 1 h, substrate remaining; 10 uM compound; closer to zero = closer to 100% inhibition; read-out: S%R 10 uM mGnRHR

remaining activity at 10 µM [%] | SMILES
0 | Cc1cc2c(cc1Cc1ccc(C(=O)NCCSCCO)o1)C(C)(C)CCC2(C)C [Compound 561]
0 | CCCCN(C)C(=O)c1ccc(Cc2cc3c(cc2C)C(C)(C)CCC3(C)C)o1 [Compound 680]
4 | CSCCNC(=O)c1ccc(Cc2cc3c(cc2C)C(C)(C)CCC3(C)C)o1 [Compound 648]
7 | Cc1cc2c(cc1Cc1ccc(C(=O)NCCCOC(C)C)o1)C(C)(C)CCC2(C)C [Compound 560]
9 | Cc1cc2c(cc1Cc1ccc(C(=O)N(CCN3CCOCC3)Cc3ccccc3)o1)C(C)(C)CCC2(C)C [Compound 534]
18 | Cc1cc2c(cc1Cc1ccc(C(=O)N(C)CC#N)o1)C(C)(C)CCC2(C)C [Compound 580]
58 | CNCCCNC(=O)c1ccc(Cc2cc3c(cc2C)C(C)(C)CCC3(C)C)o1 [Compound 498]
35 | CCOC(=O)N1CCN(C(=O)c2ccc(Cc3cc4c(cc3C)C(C)(C)CCC4(C)C)o2)CC1 [Compound 628]
19 | Cc1cc2c(cc1Cc1ccc(C(=O)N3CCC(NC(=O)OC(C)(C)C)C3)o1)C(C)(C)CCC2(C)C (stereo not shown) [Compound 652]
19 | Cc1cc2c(cc1Cc1ccc(C(=O)N3CCC(C)CC3)o1)C(C)(C)CCC2(C)C [Compound 605]
48 | Cc1cc2c(cc1Cc1ccc(C(=O)N3C[C@H]4CCCC[C@H]4CC3C(=O)NC(C)(C)C)o1)C(C)(C)CCC2(C)C (stereo partly shown) [Compound 591]
30 | Cc1cc2c(cc1Cc1ccc(C(=O)N(CCCN(C)C)CCCN(C)C)o1)C(C)(C)CCC2(C)C [Compound 700]
58 | Cc1cc2c(cc1Cc1ccc(C(=O)N(CCC(c3ccccc3)c3ccccc3)Cc3ccco3)o1)C(C)(C)CCC2(C)C [Compound 630]
-3 | Cc1cc2c(cc1Cc1ccc(C(=O)N(CCCN3CCN(C)CC3)Cc3ccc(F)cc3)o1)C(C)(C)CCC2(C)C [Compound 583]
52 | Cc1cc2c(cc1Cc1ccc(C(=O)N3CCC(O)(c4ccc(Br)cc4)CC3)o1)C(C)(C)CCC2(C)C [Compound 656]
-6 | Cc1cc2c(cc1Cc1ccc(C(=O)NCCCCCCN(C)C)o1)C(C)(C)CCC2(C)C [Compound 627]
0 | Cc1cc2c(cc1Cc1ccc(C(=O)N(CCN3CCCC3)Cc3ccccc3)o1)C(C)(C)CCC2(C)C [Compound 540]
0 | Cc1cc2c(cc1Cc1ccc(C(=O)NCc3ccc(F)c(F)c3)o1)C(C)(C)CCC2(C)C [Compound 519]

remaining activity at 10 µM [%] | SMILES
0 | Cc1cc2c(cc1Cc1ccc(C(=O)N(Cc3cccnc3)Cc3cccn3C)o1)C(C)(C)CCC2(C)C [Compound 688]
17 | Cc1cc2c(cc1Cc1ccc(C(=O)N(Cc3ccccc3)C(C)C)o1)C(C)(C)CCC2(C)C [Compound 629]
10 | Cc1cc2c(cc1Cc1ccc(C(=O)N3CC(C)CC(C)C3)o1)C(C)(C)CCC2(C)C (stereo not shown) [Compound 579]
1 | CCC(O)CNC(=O)c1ccc(Cc2cc3c(cc2C)C(C)(C)CCC3(C)C)o1 (stereo not shown) [Compound 679]
7 | Cc1cc2c(cc1Cc1ccc(C(=O)NCC(=O)Nc3ccc([N+](=O)[O-])cc3)o1)C(C)(C)CCC2(C)C [Compound 464]
-6 | COC(=O)CCCCCNC(=O)c1ccc(Cc2cc3c(cc2C)C(C)(C)CCC3(C)C)o1 [Compound 493]
52 | Cc1cc2c(cc1Cc1ccc(C(=O)N3CCC(Cc4ccccc4)CC3)o1)C(C)(C)CCC2(C)C [Compound 585]
3 | Cc1cc2c(cc1Cc1ccc(C(=O)NC[C@@H]3CCCC[C@H]3O)o1)C(C)(C)CCC2(C)C [Compound 566]
25 | COc1cccc(CN(Cc2cccc(Oc3cccc(C(F)(F)F)c3)c2)C(=O)c2ccc(Cc3cc4c(cc3C)C(C)(C)CCC4(C)C)o2)c1OC [Compound 690]
43 | Cc1cc2c(cc1Cc1ccc(C(=O)N3CCCC3C(=O)NC(c3ccccc3)c3ccccc3)o1)C(C)(C)CCC2(C)C (stereo not shown) [Compound 621]
-4 | CCN1CC(N(CCC(C)CCCC(C)(C)O)C(=O)c2ccc(Cc3cc4c(cc3C)C(C)(C)CCC4(C)C)o2)CN1CC (stereo not shown) [Compound 660]
35 | CCCN(Cc1ccc([N+](=O)[O-])cc1)C(=O)c1ccc(Cc2cc3c(cc2C)C(C)(C)CCC3(C)C)o1 [Compound 589]
-4 | Cc1cc2c(cc1Cc1ccc(C(=O)NCCCN3CCOCC3)o1)C(C)(C)CCC2(C)C [Compound 460]
10 | COc1ccccc1CN(C(=O)c1ccc(Cc2cc3c(cc2C)C(C)(C)CCC3(C)C)o1)C1CCN(Cc2ccccc2)C1 (stereo not shown) [Compound 674]
2 | Cc1cc2c(cc1Cc1ccc(C(=O)NCCNc3nccc(NCC4CCCO4)n3)o1)C(C)(C)CCC2(C)C (stereo not shown) [Compound 514]
48 | Cc1cc2c(cc1Cc1ccc(C(=O)N3CCC[C@H]3CNc3ccccc3)o1)C(C)(C)CCC2(C)C [Compound 549]
2 | CCSCCNC(=O)c1ccc(Cc2cc3c(cc2C)C(C)(C)CCC3(C)C)o1 [Compound 655]
42 | Cc1cc2c(cc1Cc1ccc(C(=O)N3CCC(C(=O)c4ccccc4)CC3)o1)C(C)(C)CCC2(C)C [Compound 542]
